# In US11938106B2, “Treatment of tinnitus using glutamate receptor agonists” (Northeast Ohio Medical University, priority 2016, dated 2024):
# Key:
# [1] = Gap detection performance for behavioral assessment of tinnitus in the tinnitus mouse model; type: in vivo; conditions: one mouse, FIG. 17
# Experimental: Mice were assessed for tinnitus 3 months after exposure. The ability of mice to detect a gap of silence preceding the startle stimulus was determined using commercial hardware/software equipment from Kinder Scientific, Inc. Mice were placed in a small restrainer situated on a plate with a pressure sensor. Any animal motion was detected by the sensor which measured its amplitude and stored data on the computer hard drive. Kinder Scientific software was used to generate a sequence of stimulus trials including a startle stimulus presented alone (STARTLE) and a startle stimulus paired with a gap (GAP+STARTLE) embedded into continuous background noise. The background consisted of narrow-band (1/3 octave) noise centered at six different frequencies (10, 12.5, 16, 20, 25, and 31.5 kHz). […]
# Therefore, the data in each session were statistically analyzed to remove outliers (Grubbs' test for outliers). […] To calculate the GAP+STARTLE/STARTLE ratio we calculated the mean for all STARTLE values. […]
# The presence of tinnitus in each mouse is assessed by pre-pulse inhibition of the acoustic startle reflex using the procedure developed by Turner et al. Turner et al., Behav Neurosci 120:188-195 (2006). […] The inventor measured the ratio of the startle response amplitude when preceded by a gap of silence over the startle response amplitude without preceded gap. […]
# IC neurons = assay: Extracellular recording of neuronal firing in the inferior colliculus of awake mice before, during and after systemic drug injection; type: in vivo, mouse
# Experimental: (§1) Adult CBA/CaJ mice were used for the study. […] Injection was performed remotely via an intravenous catheter inserted into the tail vein. Spontaneous firing rates of IC neurons were measured and compared before, during, and after of drug injection. To test whether this drug is affecting general sound processing in the auditory system of mice, the acoustic startle reflex and gap detection performance were also assessed.
# (§2) The animals used were CBA/CaJ male mice, 8 months to 1.5 years old. Extracellular recording was carried out using Quartz micropipettes filled with 1M potassium acetate solution, 10-20 M ohms. Local field potential (LFP) was evaluated using a chronically implanted 4 channel multi-electrode array chronically implanted into IC in a freely moving animal via wireless recording system. For drug administration, the Group II mGluR agonist was administered via intravenous (3.5 mg/kg) or intraperitoneal (5 mg/kg) injections while recording neural activity. To evaluate startle input/output function, startle intensities were randomized within the range from 70 dB to 120 dB SPL. Startle was a broad band noise 20 ms duration. Inter-trial intervals were pseudo randomized between 15 and 25 sec. For gap detection, two trials were carried out. Trial I—The acoustic startle (110 dB SPL, 20 ms duration, wideband noise) imbedded in continuous background noise (65 dB SPL, third octave, centered at 10, 12.5, 16, 20, 25, and 31.5 kHz). Trial II—Trial I paired with a 20 ms gap embedded into background noise and presented 100 ms before the startle. Inter-trial intervals were pseudo randomized between 10 and 17 sec.
# [2] = system: inferior colliculus (auditory midbrain); assay: Local field potentials (sound evoked activity) recorded in the IC of awake mice; type: in vivo, mouse; conditions: systemic administration, FIG. 13
# Experimental: FIG. 13 provides graphs showing that a group II mGluR agonist enhances of sound evoked activity in the IC. Local field potentials (LFPs) recorded in the IC of awake mice in response to 30 ms wideband noise (1-100 kHz, 80 dB SPL) recorded before, 30 min and 90 min after drug administration. LFPs shown here were generated based on 130 repetitions. SEMs are shown by grey
# as §2, with “Trial II—Trial I paired with a 20 ms gap embedded into background noise and presented 100 ms before the startle. Inter-trial intervals were pseudo randomized between 10 and 17 sec.” left out
# [3] = Gap detection performance (gap-induced suppression of acoustic startle) in mice; type: in vivo, mouse; conditions: 7 mice, FIG. 14B, 30 min after drug administration
# Experimental: as §1
# as §2, with “Trial I—The acoustic startle (110 dB SPL, 20 ms duration, wideband noise) imbedded in continuous background noise (65 dB SPL, third octave, centered at 10, 12.5, 16, 20, 25, and 31.5 kHz). Trial II—Trial I paired with a 20 ms gap embedded into background noise and presented 100 ms before the startle. Inter-trial intervals were pseudo randomized between 10 and 17 sec.” left out
# [4] = Acoustic startle reflex (startle input/output function); type: in vivo, mouse; conditions: in 6 out of 7 mice tested, FIG. 14A, 30 min after drug administration
# Experimental: as §1
# as §2, with “Trial I—The acoustic startle (110 dB SPL, 20 ms duration, wideband noise) imbedded in continuous background noise (65 dB SPL, third octave, centered at 10, 12.5, 16, 20, 25, and 31.5 kHz). Trial II—Trial I paired with a 20 ms gap embedded into background noise and presented 100 ms before the startle. Inter-trial intervals were pseudo randomized between 10 and 17 sec.” left out
compound,measurement,setting,value
"N[C@@]1(C(=O)O)CC[C@H]2[C@H](C(=O)O)[C@H]21 [LY354740, (1S,2S,5R,6S)-2-Aminobicyclo[3.1.0]hexane-2,6-dicarboxylic acid]",gap detection performance after systemic injection,[1],improvement of gap detection in this mouse to the control level
same,duration of suppression of spontaneous activity,IC neurons; injected IV,several tens of minutes
same,time after injection to suppression of spontaneous activity,IC neurons; injected IV,Several seconds
same,effect on spontaneous activity in IC neurons,"IC neurons; injected IV, vast majority of IC neurons, awake mice",near complete suppression
same,time after systemic drug administration at which background firing was suppressed,"IC neurons; single IC neuron, FIG. 12",About 5 min
same,time until rate of background activity almost recovered to pre-drug level,"IC neurons; single IC neuron, FIG. 12",about 2 hours
same,effect on sound-evoked firing,"IC neurons; single IC neuron, FIG. 12, systemic administration",unaffected
same,effect on spontaneous activity in auditory neurons,"IC neurons; systemic activation of group II mGluRs, FIG. 10, 15",dramatically suppressed
same,effect on sound evoked activity,[2],did not change or slightly increased
same,effect on gap detection performance,[3],not affected
same,increase of magnitude of startle responses,[4],at least 20%
